Test results taken from patent US20260166046A1, “Inhibitors of methionine aminopeptidase-2 and methods of preparation and uses thereof” (Primetime Life Sciences LLC, priority 2022, published 2026).
pIC50: −log10 of the molar value.

Legend:
[1] = in vivo; cited from earlier work
Recombinant human MetAP2 = molecular target: T1, Recombinant human MetAP2 (Homo sapiens, UniProt P50579); assay: MetAP2 fluorescence assay; format: biochemical; conditions: recombinant human MetAP2, H-Met-Gly-Pro-AMC substrate
T1 construct: purchased Bio-Techne/R&D systems
T1 sequence (P50579 whole entry): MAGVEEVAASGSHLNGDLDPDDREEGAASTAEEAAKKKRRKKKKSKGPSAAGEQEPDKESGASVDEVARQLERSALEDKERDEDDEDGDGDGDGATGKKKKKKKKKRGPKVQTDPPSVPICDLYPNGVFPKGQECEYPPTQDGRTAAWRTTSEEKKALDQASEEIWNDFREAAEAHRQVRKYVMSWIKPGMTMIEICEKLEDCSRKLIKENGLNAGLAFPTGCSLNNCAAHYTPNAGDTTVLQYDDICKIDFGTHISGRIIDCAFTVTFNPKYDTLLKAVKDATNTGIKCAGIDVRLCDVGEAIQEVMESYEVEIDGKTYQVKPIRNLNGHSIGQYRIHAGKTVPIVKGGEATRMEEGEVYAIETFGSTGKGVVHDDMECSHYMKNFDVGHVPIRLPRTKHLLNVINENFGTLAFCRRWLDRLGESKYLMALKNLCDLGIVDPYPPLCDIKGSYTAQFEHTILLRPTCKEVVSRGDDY
Method: MetAP2 Fluorescence Assay
Recombinant human MetAP2 (Bio-Techne/R&D systems) was diluted to 10 μg/mL in the assay buffer (50 mM HEPES, 0.1 mM CoCl2, 100 mM NaCl, pH 7.5). The substrate, H-Met-Gly-Pro-AMC (Bio-Techne/R&D systems), was diluted to 500 μM with 2 μg/mL of the coupling enzyme, recombinant human dipeptidyl peptidase-4 (Bio-Techne/R&D systems), in assay buffer. 50 μL of 10 μg/mL recombinant human METAP2 were loaded into a flat-bottom black 96-well plate (Greiner Bio), and the reaction was initiated by adding 50 μL of the substrate/dipeptidyl peptidase-4 mixture. The reaction mixture was incubated at room temperature for 10 minutes, and the fluorescence was measured for 5 minutes at excitation and emission wavelengths of 380 nm and 460 nm, respectively, in kinetic mode. For IC50determination, 0.5 μL inhibitor solution was added to the reaction mixture. The reaction rates were used to calculate IC50with KaleidaGraph.

G. lamblia WB = assay: Trophozoite viability IC50 determination, Giardia assay (ATPLite); format: cell-based; conditions: Giardia duodenalis, 72 h, read-out: Cell viability values Mean IC50 (nM) G. lamblia WB
Method: (§1) Giardia cultures: Trophozoites of G. lamblia isolates WB and GS were grown anaerobically in borosilicate glass screw-cap culture tubes (Fisher Scientific) at pH 7.0 in modified TYI-S-33 medium. The medium was supplemented with 10% heat-inactivated bovine serum (Sigma-Aldrich) and 0.05% bovine bile (Sigma-Aldrich). To attain low-oxygen-tension conditions, the tubes were filled to 85 to 90% of their total volume capacity and incubated without shaking at 37° C. Subcultures (2×10^5 trophozoites per tube) were made three times a week. Detachment of trophozoites for inoculation was achieved by chilling the cultures on ice for 20 min. Culturing and detachment of Metronidazole-resistant G. lamblia Assemblage A 713M3 and assemblage B 1279-M1 trophozoites followed the same protocol, except that the growth medium was supplemented with metronidazole gradually increasing the concentration to 10 μM. Amebae cultures: E. histolytica strain HM1:IMSS trophozoites were grown at 37° C. in TYI-S-33 medium supplemented with penicillin (100 U/mL) and streptomycin sulfate (100 μg/mL). Trophozoites were grown anaerobically in borosilicate tubes and subcultures were made 1-2 times a week. Trophozoites were detached for inoculation by chilling the cultures on ice for 20 minutes.
(§2) Trophozoite viability IC50determination
(§3) Giardia assays: 10 μL giardia trophozoites in growth medium were plated at a density of 10,000 cells/well in sterile 96-well black clear bottom assay plates. Fumagillin and fumagillol derivatives were 1:3 serially diluted from a 1 μM DMSO stock solution and then 100 μL/well were transferred in duplicate to the assay wells. Metronidazole (control) was 1:3 serially diluted in growth medium from a 100 μM stock solution in DMSO. The assay plates were placed in a BD GasPak™ EZ Container System (BD Diagnostics) to create an anaerobic growth environment. The sealed containers were incubated at 37° C. for 72 hr. Following incubation, 70 μL/well of the ATPLite reagent (PerkinElmer) was added to the assay plates for one-step lysis and ATP level detection. The luminescent signals of the assay plates were measured on an EnSpire 2300 plate reader (PerkinElmer). Concentration response titration points for each compound were fitted to a 4-parameters logistic nonlinear regression model using KaleidaGraph, yielding the IC50value and standard error (SE).

G. lamblia GS = assay: as above; format: cell-based; conditions: Giardia duodenalis, 72 h, read-out: Cell viability values Mean IC50 (nM) G. lamblia GS
Method: as §1, §2, §3

E. histolytica HM1: IMSS = assay: Trophozoite viability IC50 determination, Amebae assay (ATPLite); format: cell-based; conditions: Entamoeba histolytica, 72 h, read-out: Cell viability values Mean IC50 (nM) E. histolytica HM1: IMSS
Method: as §1, §2, §3
Amebae assays: The protocol is identical to that described above except that the trophozoites were plated at a density of 5000 cells/well because of their larger size.

For `CO[C@@H]1[C@H](OC(=O)/C=C/C=C/C=C/C=C/C(=O)O)CC[C@]2(CO2)[C@H]1[C@@]1(C)O[C@@H]1CC=C(C)C` [Fumagillin], the body weight loss [1] is given as over 15%, the “immune-compromised patients with reversible toxic effect on bone marrow (primarily Thrombocytopenia)” value [1] is given as 33% and the “spontaneous platelet count recovery after halting therapy” value [1] is given as 1-2 weeks.
For `CO[C@@H]1[C@H](OC(=O)Nc2ccncc2B(O)O)CC[C@]2(CO2)[C@H]1[C@@]1(C)O[C@@H]1CC=C(C)C` [No 37], the pIC50 (Recombinant human MetAP2) was over 8.00, the IC50 (G. lamblia WB) was over 1000 nM and the IC50 (G. lamblia GS) was 10.1 to 100 nM. It also gave an IC50 (E. histolytica HM1: IMSS) of over 1000 nM.
In the case of `CO[C@@H]1[C@H](OC(=O)Nc2c(B(O)O)ccnc2Cl)CC[C@]2(CO2)[C@H]1[C@@]1(C)O[C@@H]1CC=C(C)C` [No 47], the pIC50 (Recombinant human MetAP2) was over 8.00, the IC50 (G. lamblia WB) was over 1000 nM and the IC50 (G. lamblia GS) was 101 to 1000 nM. It also gave an IC50 (E. histolytica HM1: IMSS) of over 1000 nM.
In the case of `CO[C@@H]1[C@H](OC(=O)Nc2ccc3c(c2)B(O)OCC3)CC[C@]2(CO2)[C@H]1[C@@]1(C)O[C@@H]1CC=C(C)C` [No 14], the pIC50 (Recombinant human MetAP2) was over 8.00, the IC50 (G. lamblia WB) was 101 to 1000 nM and the IC50 (G. lamblia GS) was 10.1 to 100 nM. It also gave an IC50 (E. histolytica HM1: IMSS) of 101 to 1000 nM.
Work on `CO[C@@H]1[C@H](OC(=O)NCc2ccc(B(O)O)cc2)CC[C@]2(CO2)[C@H]1[C@@]1(C)O[C@@H]1CC=C(C)C` [No 30] yielded a pIC50 (Recombinant human MetAP2) of over 8.00, an IC50 (G. lamblia WB) of 101 to 1000 nM and an IC50 (G. lamblia GS) of 101 to 1000 nM. The IC50 (E. histolytica HM1: IMSS) was 101 to 1000 nM.
For `CO[C@@H]1[C@H](OC(=O)Nc2ccc3c(c2)B(O)OC3)CC[C@]2(CO2)[C@H]1[C@@]1(C)O[C@@H]1CC=C(C)C` [No 6], the pIC50 (Recombinant human MetAP2) was over 8.00, the IC50 (G. lamblia WB) was 10.1 to 100 nM and the IC50 (G. lamblia GS) was under 10 nM. It also gave an IC50 (E. histolytica HM1: IMSS) of 10.1 to 100 nM.
